For orientation: inhibition means the drop in the measured response relative to a control, in per cent. Low readings indicate a weak effect, high ones a strong effect. The IC50 is the point on the concentration scale where inhibition reaches its midpoint. Read a low IC50 as greater potency in that assay. In general, Ki refers to the dissociation constant of the complex between target and ligand, obtained from inhibition or displacement. Higher therefore signals weaker binding.

inhibition, IC50 and Ki data for four compounds are collected here from ChEMBL document CHEMBL1147070 (Drug Metab Dispos, 2007).

The structures appear in SMILES notation.

Holding throughout (type): cell-based
The target in one data set is T1, URAT1 (SLC22A12) (Homo sapiens, UniProt Q96S37).
T1 sequence (Q96S37 whole entry): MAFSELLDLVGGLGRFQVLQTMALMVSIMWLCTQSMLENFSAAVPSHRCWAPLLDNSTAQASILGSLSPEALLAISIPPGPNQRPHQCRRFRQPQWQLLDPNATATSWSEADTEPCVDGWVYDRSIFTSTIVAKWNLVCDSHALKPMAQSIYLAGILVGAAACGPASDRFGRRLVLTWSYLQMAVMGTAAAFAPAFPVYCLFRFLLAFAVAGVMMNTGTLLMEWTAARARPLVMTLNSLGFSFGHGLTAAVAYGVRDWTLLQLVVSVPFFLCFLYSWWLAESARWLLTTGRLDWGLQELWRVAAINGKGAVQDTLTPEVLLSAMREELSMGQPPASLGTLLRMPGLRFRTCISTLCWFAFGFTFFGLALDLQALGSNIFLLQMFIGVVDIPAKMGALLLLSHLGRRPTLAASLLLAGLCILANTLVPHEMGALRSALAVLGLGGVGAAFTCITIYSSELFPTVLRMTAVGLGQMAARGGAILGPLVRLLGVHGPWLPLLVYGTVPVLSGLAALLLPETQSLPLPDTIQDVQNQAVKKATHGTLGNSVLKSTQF
The data set is described as follows: Inhibition of human URAT1-mediated urate uptake in HEK293 cells at 2 uM. To be noted: HEK293 cells expressing human URAT1, probe urate.

For data set [1], the target named is T2, Solute carrier family 22 member 12 (Homo sapiens, UniProt Q96S37).
T2 sequence (Q96S37 whole entry): T1 sequence (Q96S37 whole entry)
The data set is described as follows: Inhibition of human URAT1-mediated urate uptake in HEK293 cells.

Data set [2] addresses T2, Solute carrier family 22 member 12. Briefly: Inhibition of human URAT1-mediated urate uptake in HEK293 cells by competitive inhibition assay.

Compound `CCCN(CCC)S(=O)(=O)c1ccc(C(=O)O)cc1` [PROBENECID] displayed an inhibition at 2 µM against URAT1 (SLC22A12) of 30%. `O=c1c(O)c(-c2ccc(O)cc2O)oc2cc(O)cc(O)c12` [MORIN] returned an IC50 in data set [1] of 2 µM. Further, the Ki in data set [2] amounted to 5.74 µM. In data set [1], `O=C1C(CC[S+]([O-])c2ccccc2)C(=O)N(c2ccccc2)N1c1ccccc1` (stereo not given) [SULFINPYRAZONE] showed an IC50 of 100 µM.

Compound `CCc1oc2ccccc2c1C(=O)c1cc(Br)c(O)c(Br)c1` [BENZBROMARONE] yielded an inhibition at 2 µM on URAT1 (SLC22A12) of 70%.
